Assay results published in US20250302832A1, “PYRAZINE DERIVATIVES AND USES THEREOF” (FOGHORN THERAPEUTICS INC., priority 2022, published 2025).

Columns and labels:
[1] = target: T1, HiBit-BRG1 fusion protein (Homo sapiens, UniProt P51532); experiment: HiBiT-BRG1 cell-based degradation assay (Nano-Glo HiBiT lytic detection, 24 h); settings: HeLa cell line expressing HiBit-BRG1 and LgBit; for Dmax: read-out: BRG1 HiBit Degradation Maximum (%); for DC50: read-out: BRMG1 HiBit Degradation IC50
T1 construct: expressed in transfected cells
Procedure, shortened: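 HeLa cells stably expressing HiBiT-BRG1 and LgBiT, 5000 per well, compound-treated 24 h, equilibrated 15 min at room temperature, then lysed with LgBiT-containing Nano-Glo HiBiT lytic reagent and luminescence read. % degradation normalised between DMSO (high control) and 2 μM reference BRM/BRG1 degrader (low control).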

HiBit-BRM fusion protein = target: T2, HiBit-BRM fusion protein (Homo sapiens, UniProt P51531); experiment: HiBiT-BRM cell-based degradation assay (Nano-Glo HiBiT lytic detection, 24 h); settings: HeLa cell line expressing HiBiT-BRM; for DC50: read-out: BRM HiBit Degradation IC50
T2 construct: expressed in transfected cells
Procedure, shortened: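 Stable HeLa HiBiT-BRM cells treated 24 h with compounds (10-point 3-fold dilutions, 30 μM final top dose, duplicate). HiBiT levels read by Nano-Glo lytic luminescence; % degradation normalised to DMSO (high control) and 2 μM reference BRM/BRG1 degrader (low control).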

T2 sequence (P51531 whole entry, the tested form may be a part): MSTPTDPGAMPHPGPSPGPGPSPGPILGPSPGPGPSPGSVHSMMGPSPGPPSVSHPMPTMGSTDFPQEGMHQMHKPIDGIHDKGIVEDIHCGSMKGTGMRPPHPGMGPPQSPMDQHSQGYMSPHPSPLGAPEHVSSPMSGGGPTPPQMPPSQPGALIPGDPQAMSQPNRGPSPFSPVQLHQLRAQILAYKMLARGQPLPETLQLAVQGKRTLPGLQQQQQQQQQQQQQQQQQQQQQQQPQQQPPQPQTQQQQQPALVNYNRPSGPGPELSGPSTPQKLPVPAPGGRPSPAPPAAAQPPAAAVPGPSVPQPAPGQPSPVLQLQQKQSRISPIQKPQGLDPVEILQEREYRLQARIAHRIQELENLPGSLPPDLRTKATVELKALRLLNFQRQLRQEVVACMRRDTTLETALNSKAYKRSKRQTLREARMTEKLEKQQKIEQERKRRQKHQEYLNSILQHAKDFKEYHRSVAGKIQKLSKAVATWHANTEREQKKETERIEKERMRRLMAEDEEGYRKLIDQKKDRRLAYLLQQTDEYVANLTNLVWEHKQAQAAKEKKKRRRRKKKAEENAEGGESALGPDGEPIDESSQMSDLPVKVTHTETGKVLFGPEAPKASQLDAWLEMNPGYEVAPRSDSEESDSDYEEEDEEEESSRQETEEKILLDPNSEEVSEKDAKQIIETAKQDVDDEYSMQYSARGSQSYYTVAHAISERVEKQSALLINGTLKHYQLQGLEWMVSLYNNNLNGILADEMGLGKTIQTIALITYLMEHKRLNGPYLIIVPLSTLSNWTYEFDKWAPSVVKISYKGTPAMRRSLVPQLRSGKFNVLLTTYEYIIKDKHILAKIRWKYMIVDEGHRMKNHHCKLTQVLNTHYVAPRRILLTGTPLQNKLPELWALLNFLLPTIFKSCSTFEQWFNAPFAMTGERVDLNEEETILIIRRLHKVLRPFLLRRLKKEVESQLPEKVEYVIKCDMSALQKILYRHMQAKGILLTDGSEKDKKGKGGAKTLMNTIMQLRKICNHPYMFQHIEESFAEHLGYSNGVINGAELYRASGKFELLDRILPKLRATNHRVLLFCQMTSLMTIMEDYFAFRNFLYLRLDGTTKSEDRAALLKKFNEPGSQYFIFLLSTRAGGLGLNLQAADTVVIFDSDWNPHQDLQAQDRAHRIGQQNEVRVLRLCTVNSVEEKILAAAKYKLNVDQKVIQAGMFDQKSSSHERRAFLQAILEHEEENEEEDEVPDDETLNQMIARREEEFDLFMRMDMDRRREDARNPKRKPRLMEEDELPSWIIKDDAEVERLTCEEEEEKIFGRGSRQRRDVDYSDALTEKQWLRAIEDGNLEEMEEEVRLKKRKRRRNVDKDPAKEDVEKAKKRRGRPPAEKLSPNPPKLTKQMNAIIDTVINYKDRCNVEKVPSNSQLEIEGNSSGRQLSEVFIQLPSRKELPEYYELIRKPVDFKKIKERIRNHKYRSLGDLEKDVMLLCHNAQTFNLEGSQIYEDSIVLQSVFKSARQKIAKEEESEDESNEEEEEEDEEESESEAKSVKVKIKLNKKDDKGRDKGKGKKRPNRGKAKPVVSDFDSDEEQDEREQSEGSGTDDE
T1 sequence (P51532 whole entry, the tested form may be a part): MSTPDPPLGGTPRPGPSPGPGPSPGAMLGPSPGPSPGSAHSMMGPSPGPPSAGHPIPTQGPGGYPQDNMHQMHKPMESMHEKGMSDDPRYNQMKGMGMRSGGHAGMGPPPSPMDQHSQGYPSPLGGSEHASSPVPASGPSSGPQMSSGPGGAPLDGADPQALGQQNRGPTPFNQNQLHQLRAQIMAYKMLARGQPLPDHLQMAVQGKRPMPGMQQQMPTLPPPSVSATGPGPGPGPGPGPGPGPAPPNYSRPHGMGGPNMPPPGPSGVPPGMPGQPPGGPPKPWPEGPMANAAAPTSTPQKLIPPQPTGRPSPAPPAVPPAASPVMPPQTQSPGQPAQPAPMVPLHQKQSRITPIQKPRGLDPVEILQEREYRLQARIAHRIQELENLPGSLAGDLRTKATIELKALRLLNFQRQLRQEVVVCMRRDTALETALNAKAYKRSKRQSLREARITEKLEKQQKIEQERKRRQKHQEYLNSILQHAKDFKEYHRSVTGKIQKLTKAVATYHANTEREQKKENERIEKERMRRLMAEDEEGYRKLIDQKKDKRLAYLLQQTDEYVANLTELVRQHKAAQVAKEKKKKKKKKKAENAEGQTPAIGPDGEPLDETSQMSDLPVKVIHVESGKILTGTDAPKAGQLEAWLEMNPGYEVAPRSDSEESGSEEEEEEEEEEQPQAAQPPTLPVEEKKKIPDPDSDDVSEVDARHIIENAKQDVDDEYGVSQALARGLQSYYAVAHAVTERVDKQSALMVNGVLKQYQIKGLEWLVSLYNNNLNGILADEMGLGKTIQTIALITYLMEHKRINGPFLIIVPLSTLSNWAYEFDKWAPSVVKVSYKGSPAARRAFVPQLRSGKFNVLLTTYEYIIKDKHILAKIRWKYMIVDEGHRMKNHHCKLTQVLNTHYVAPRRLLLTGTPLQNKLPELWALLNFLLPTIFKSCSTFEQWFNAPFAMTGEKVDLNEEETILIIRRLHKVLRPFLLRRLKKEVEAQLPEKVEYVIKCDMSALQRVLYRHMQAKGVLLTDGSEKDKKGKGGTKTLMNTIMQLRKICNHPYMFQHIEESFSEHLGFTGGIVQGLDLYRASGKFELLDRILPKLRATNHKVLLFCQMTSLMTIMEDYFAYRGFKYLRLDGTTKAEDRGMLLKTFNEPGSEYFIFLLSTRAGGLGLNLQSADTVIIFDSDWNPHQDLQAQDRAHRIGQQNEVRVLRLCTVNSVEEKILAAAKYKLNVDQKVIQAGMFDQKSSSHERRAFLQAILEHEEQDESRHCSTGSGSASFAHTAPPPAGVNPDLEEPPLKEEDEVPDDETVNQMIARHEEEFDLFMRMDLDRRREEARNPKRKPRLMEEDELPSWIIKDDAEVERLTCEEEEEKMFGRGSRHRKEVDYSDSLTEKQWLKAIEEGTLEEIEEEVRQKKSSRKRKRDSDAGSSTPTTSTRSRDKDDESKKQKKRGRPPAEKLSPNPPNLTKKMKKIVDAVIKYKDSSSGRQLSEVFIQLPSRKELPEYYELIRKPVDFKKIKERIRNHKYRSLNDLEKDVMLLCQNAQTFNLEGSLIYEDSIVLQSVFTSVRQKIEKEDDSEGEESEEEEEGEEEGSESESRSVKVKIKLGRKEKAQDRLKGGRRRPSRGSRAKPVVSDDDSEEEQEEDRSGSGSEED

| SMILES | Dmax [1] [%] | DC50 [1] [nM] | DC50 (HiBit-BRM fusion protein) [nM] | BRM HiBit Degradation Maximum (%) (HiBit-BRM fusion protein) |
| --- | --- | --- | --- | --- |
| Cc1ncsc1-c1ccc([C@H](C)NC(=O)[C@@H]2C[C@@H](O)CN2C(=O)[C@@H](c2cc(OCCN3CCC(O)(c4cc5nnc(-c6ccccc6O)cc5n4C)CC3)no2)C(C)C)cc1 [Compound 30, (2S,4R)-4-hydroxy-1-[(2R)-2-[3-(2-{4-hydroxy-4-[3-(2-hydroxyphenyl)-5-methylpyrrolo[3,2-c]pyridazin-6-yl]piperidin-1-yl}ethoxy)-1,2-oxazol-5-yl]-3-methylbutanoyl]-N-[(1S)-1-[4-(4-methyl-1,3-thiazol-5-yl)phenyl]ethyl]pyrrolidine-2-carboxamide] | > 75 | > 100 | > 10 | A (“A” indicates maximum degradation ≥75%) |
| Cc1ncsc1-c1ccc([C@H](C)NC(=O)[C@@H]2C[C@@H](O)CN2C(=O)[C@@H](c2cc(-c3ccnc(N4CC[C@@H](c5cc6nnc(-c7ccccc7O)cc6n5C5CC5)C4)n3)no2)C(C)C)cc1 [Compound 116, (2S,4R)-1-[(2R)-2-(3-{2-[(3R)-3-[5-cyclopropyl-3-(2-hydroxyphenyl)pyrrolo[3,2-c]pyridazin-6-yl]pyrrolidin-1-yl]pyrimidin-4-yl}-1,2-oxazol-5-yl)-3-methylbutanoyl]-4-hydroxy-N-[(1S)-1-[4-(4-methyl-1,3-thiazol-5-yl)phenyl]ethyl]pyrrolidine-2-carboxamide] | < 50 | – | > 10 | A (“A” indicates maximum degradation ≥75%) |
| Cc1ncsc1-c1ccc([C@H](C)NC(=O)[C@@H]2C[C@@H](O)CN2C(=O)[C@@H](c2cc(-c3cnc(N4CC[C@H](c5cc6nnc(-c7cc(F)cc(Cl)c7O)cc6n5C5CC5)C4)nc3)no2)C(C)C)cc1 [Compound 73, (2S,4R)-1-((R)-2-(3-(2-((S)-3-(3-(3-chloro-5-fluoro-2-hydroxyphenyl)-5-cyclopropyl-5H-pyrrolo[3,2-c]pyridazin-6-yl)pyrrolidin-1-yl)pyrimidin-5-yl)isoxazol-5-yl)-3-methylbutanoyl)-4-hydroxy-N-((S)-1-(4-(4-methylthiazol-5-yl)phenyl)ethyl)pyrrolidine-2-carboxamide] | > 50 | > 10 | > 10 | B (“B” indicates maximum degradation ≥50%) |
| C#CCNC(=O)[C@@H]1C[C@@H](O)CN1C(=O)C(c1cc(N2CC3(CC(c4cc5nnc(-c6ccccc6O)cc5n4C4CCC4)C3)C2)no1)C(C)C (stereo partly drawn) [Compound 53, (2S,4R)-1-(2-(3-(6-(5-cyclobutyl-3-(2-hydroxyphenyl)-5H-pyrrolo[3,2-c]pyridazin-6-yl)-2-azaspiro[3.3]heptan-2-yl)isoxazol-5-yl)-3-methylbutanoyl)-4-hydroxy-N-(prop-2-yn-1-yl)pyrrolidine-2-carboxamide] | < 50 | – | > 10 | A (“A” indicates maximum degradation ≥75%) |
| Cc1ncsc1-c1ccc(CNC(=O)[C@@H]2C[C@@H](O)CN2C(=O)[C@@H](c2cc(N3CC4(CC(c5cc6nnc(-c7ccccc7O)cc6n5C5CCC5)C4)C3)no2)C(C)C)cc1 [Compound 48, (2S,4R)-1-((R)-2-(3-(6-(5-cyclobutyl-3-(2-hydroxyphenyl)-5H-pyrrolo[3,2-c]pyridazin-6-yl)-2-azaspiro[3.3]heptan-2-yl)isoxazol-5-yl)-3-methylbutanoyl)-4-hydroxy-N-(4-(4-methylthiazol-5-yl)benzyl)pyrrolidine-2-carboxamide] | < 50 | – | > 10 | A (“A” indicates maximum degradation ≥75%) |
| Cc1ncsc1-c1ccc([C@H](C)NC(=O)[C@@H]2C[C@@H](O)CN2C(=O)[C@@H](c2cc(N(C)CCN3CC(c4cc5nnc(-c6ccccc6O)cc5[nH]4)C3)no2)C(C)C)cc1 [Compound 2, (2S,4R)-4-hydroxy-1-((R)-2-(3-((2-(3-(3-(2-hydroxyphenyl)-5H-pyrrolo[3,2-c]pyridazin-6-yl)azetidin-1-yl)ethyl)(methyl)amino)isoxazol-5-yl)-3-methylbutanoyl)-N-((S)-1-(4-(4-methylthiazol-5-yl)phenyl)ethyl)pyrrolidine-2-carboxamide] | < 50 | – | > 100 | A (“A” indicates maximum degradation ≥75%) |
| Cc1ncsc1-c1ccc([C@H](C)NC(=O)[C@@H]2C[C@@H](O)CN2C(=O)[C@@H](c2cc(N3CCC(CN4CC(c5cc6nnc(-c7ccccc7O)cc6n5C)C4)CC3)no2)C(C)C)cc1 [Compound 9, (2S,4R)-4-hydroxy-1-((R)-2-(3-(4-((3-(3-(2-hydroxyphenyl)-5-methyl-5H-pyrrolo[3,2-c]pyridazin-6-yl)azetidin-1-yl)methyl)piperidin-1-yl)isoxazol-5-yl)-3-methylbutanoyl)-N-((S)-1-(4-(4-methylthiazol-5-yl)phenyl)ethyl)pyrrolidine-2-carboxamide] | < 50 | – | > 10 | A (“A” indicates maximum degradation ≥75%) |

The next lines start with results.

| Dmax [1] [%] | DC50 [1] [nM] | DC50 (HiBit-BRM fusion protein) [nM] | SMILES | BRM HiBit Degradation Maximum (%) (HiBit-BRM fusion protein) |
| --- | --- | --- | --- | --- |
| > 50 | > 10 | > 10 | Cc1ncsc1-c1ccc([C@H](C)NC(=O)[C@@H]2C[C@@H](O)CN2C(=O)[C@@H](c2cc(-c3cnc(N4CC[C@H](c5cc6nnc(-c7ccccc7O)cc6n5C5CCC5)C4)nc3)no2)C(C)C)cc1 [Compound 112, (2S,4R)-1-((R)-2-(3-(2-((S)-3-(5-cyclobutyl-3-(2-hydroxyphenyl)-5H-pyrrolo[3,2-c]pyridazin-6-yl)pyrrolidin-1-yl)pyrimidin-5-yl)isoxazol-5-yl)-3-methylbutanoyl)-4-hydroxy-N-((S)-1-(4-(4-methylthiazol-5-yl)phenyl)ethyl)pyrrolidine-2-carboxamide] | A (“A” indicates maximum degradation ≥75%) |
| < 50 | – | > 10 | Cc1ncsc1-c1ccc([C@H](C)NC(=O)[C@@H]2C[C@@H](O)CN2C(=O)[C@H](c2cc(-c3cnc(N4CCC(c5cc6nnc(-c7ccccc7O)cc6n5C5(C)CC5)CC4)nc3)no2)C(C)C)cc1 [Compound 42] | B (“B” indicates maximum degradation ≥50%) |
| < 50 | – | < 10 | Cc1ncsc1-c1ccc([C@H](C)NC(=O)[C@@H]2C[C@@H](O)CN2C(=O)[C@@H](c2cc(-c3cnc(N4CC[C@@H](c5cc6nnc(-c7ccccc7O)cc6n5C56CC(C5)C6)C4)nc3)no2)C(C)C)cc1 [Compound 94, (2S,4R)-1-((R)-2-(3-(2-((R)-3-(5-(bicyclo[1.1.1]pentan-1-yl)-3-(2-hydroxyphenyl)-5H-pyrrolo[3,2-c]pyridazin-6-yl)pyrrolidin-1-yl)pyrimidin-5-yl)isoxazol-5-yl)-3-methylbutanoyl)-4-hydroxy-N-((S)-1-(4-(4-methylthiazol-5-yl)phenyl)ethyl)pyrrolidine-2-carboxamide] | A (“A” indicates maximum degradation ≥75%) |
| < 50 | – | < 10 | Cc1cc(-c2cc([C@H](C(=O)N3C[C@H](O)C[C@H]3C(=O)N[C@@H](C)c3ccc(-c4scnc4C)cc3)C(C)C)on2)cnc1N1CC[C@H](c2cc3nnc(-c4ccccc4O)cc3n2C2CC2)C1 (single isomer, unassigned) [Compound 110] | A (“A” indicates maximum degradation ≥75%) |
| < 50 | – | < 10 | Cc1ncsc1-c1ccc(CNC(=O)[C@@H]2C[C@@H](O)CN2C(=O)[C@@H](c2cc(-c3cnc(N4CC[C@H](c5cc6nnc(-c7ccccc7O)cc6n5C5CC5)C4)nc3)no2)C(C)C)cc1 [Compound 90, (2S,4R)-1-((R)-2-(3-(2-((S)-3-(5-cyclopropyl-3-(2-hydroxyphenyl)-5H-pyrrolo[3,2-c]pyridazin-6-yl)pyrrolidin-1-yl)pyrimidin-5-yl)isoxazol-5-yl)-3-methylbutanoyl)-4-hydroxy-N-(4-(4-methylthiazol-5-yl)benzyl)pyrrolidine-2-carboxamide] | A (“A” indicates maximum degradation ≥75%) |
| < 50 | – | < 10 | Cc1ncsc1-c1ccc(CNC(=O)[C@@H]2C[C@@H](O)CN2C(=O)[C@@H](c2cc(N3CCC4(CC3)CC(c3cc5nnc(-c6ccccc6O)cc5n3C3CC3)C4)no2)C(C)C)cc1 [Compound 84, (2S,4R)-1-((R)-2-(3-(2-(5-cyclopropyl-3-(2-hydroxyphenyl)-5H-pyrrolo[3,2-c]pyridazin-6-yl)-7-azaspiro[3.5]nonan-7-yl)isoxazol-5-yl)-3-methylbutanoyl)-4-hydroxy-N-(4-(4-methylthiazol-5-yl)benzyl)pyrrolidine-2-carboxamide] | A (“A” indicates maximum degradation ≥75%) |
| > 50 | < 10 | < 10 | Cc1ncsc1-c1ccc([C@H](C)NC(=O)[C@@H]2C[C@@H](O)CN2C(=O)[C@@H](c2cc(-c3cnc(N4CCC(c5cc6nnc(-c7ccccc7O)cc6n5C)CC4)nc3)no2)C(C)C)cc1 [Compound 21, (2S,4R)-4-hydroxy-1-((R)-2-(3-(2-(4-(3-(2-hydroxyphenyl)-5-methyl-5H-pyrrolo[3,2-c]pyridazin-6-yl)piperidin-1-yl)pyrimidin-5-yl)isoxazol-5-yl)-3-methylbutanoyl)-N—((S)-1-(4-(4-methylthiazol-5-yl)phenyl)ethyl) pyrrolidine-2-carboxamide] | A (“A” indicates maximum degradation ≥75%) |
